# System: SW 1271 complex spheroids, viability
# Assay: Anticancer human tumor SW 1271 cell line growth inhibition [LSD1];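 also: spheroids exposed to agents for 7 days before luminescence read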;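 as to viability, T/C: 100% = DMSO vehicle control viability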
# Settings: for IC50: curve of first compound; for viability, T/C: stronger effect = lower value
# Procedure, shortened: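 Complex spheroids of tumor cells with HUVEC and human MSCs, exposed to iadademstat combined with other agents. Each agent tested in half-log steps from near clinical Cmax (else 10 microM top), DMSO ≤0.25%.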
# [1] = second compound 0.1 µM, first compound 0.00316 µM
# [2] = second compound 0.1 µM, first compound 0.01 µM
# [3] = second compound 0.1 µM, first compound 0.0316 µM
# [4] = second compound 0.1 µM, first compound 0.1 µM
# [5] = second compound 0.316 µM, first compound 0.00316 µM
# [6] = second compound 0.316 µM, first compound 0.01 µM
# [7] = second compound 0.316 µM, first compound 0.0316 µM
# [8] = second compound 0.316 µM, first compound 0.1 µM
# [9] = second compound 1 µM, first compound 0.00316 µM
# [10] = second compound 1 µM, first compound 0.01 µM
# [11] = second compound 1 µM, first compound 0.0316 µM
# [12] = second compound 1 µM, first compound 0.1 µM
# [13] = second compound 3.16 µM, first compound 0.00316 µM
# [14] = second compound 3.16 µM, first compound 0.01 µM
# [15] = second compound 3.16 µM, first compound 0.0316 µM
# [16] = second compound 3.16 µM, first compound 0.1 µM
# [17] = second compound 10 µM, first compound 0.00316 µM
# [18] = second compound 10 µM, first compound 0.01 µM
# [19] = second compound 10 µM, first compound 0.0316 µM
# [20] = second compound 10 µM, first compound 0.1 µM
# [21] = second compound 0.1 µM, first compound 0.00949 µM
# [22] = second compound 0.1 µM, first compound 0.03 µM
# [23] = second compound 0.1 µM, first compound 0.0949 µM
# [24] = second compound 0.1 µM, first compound 0.3 µM
# [25] = second compound 0.1 µM, first compound 0.949 µM
# [26] = second compound 0.1 µM, first compound 3 µM
# [27] = second compound 0.316 µM, first compound 0.00949 µM
# [28] = second compound 0.316 µM, first compound 0.03 µM
# [29] = second compound 0.316 µM, first compound 0.0949 µM
# [30] = second compound 0.316 µM, first compound 0.3 µM
# [31] = second compound 0.316 µM, first compound 0.949 µM
# [32] = second compound 0.316 µM, first compound 3 µM
# [33] = second compound 1 µM, first compound 0.00949 µM
# [34] = second compound 1 µM, first compound 0.03 µM
# [35] = second compound 1 µM, first compound 0.0949 µM
# [36] = second compound 1 µM, first compound 0.3 µM
# [37] = second compound 1 µM, first compound 0.949 µM
# [38] = second compound 1 µM, first compound 3 µM
# [39] = second compound 3.16 µM, first compound 0.00949 µM
# [40] = second compound 3.16 µM, first compound 0.03 µM
# [41] = second compound 3.16 µM, first compound 0.0949 µM
# [42] = second compound 3.16 µM, first compound 0.3 µM
# [43] = second compound 3.16 µM, first compound 0.949 µM
# [44] = second compound 3.16 µM, first compound 3 µM
# [45] = second compound 10 µM, first compound 0.00949 µM
# [46] = second compound 10 µM, first compound 0.03 µM
# [47] = second compound 10 µM, first compound 0.0949 µM
# [48] = second compound 10 µM, first compound 0.3 µM
# [49] = second compound 10 µM, first compound 0.949 µM
# [50] = second compound 10 µM, first compound 3 µM
compound,measurement,setting,value
COc1cc(Nc2ncc3c(n2)-c2ccc(Cl)cc2C(c2c(F)cccc2OC)=NC3)ccc1C(=O)O + NC1CCC(NC2CC2c2ccccc2)CC1,IC50,second compound 0.1 µM,200 nM
same,IC50,second compound 0.316 µM,148 nM
same,IC50,second compound 1 µM,184 nM
same,IC50,second compound 3.16 µM,175 nM
same,IC50,second compound 10 µM,186 nM
same,"viability, T/C",[1],84.2%
same,"viability, T/C",[2],78.2%
same,"viability, T/C",[3],80.3%
same,"viability, T/C",[4],59.5%
same,"viability, T/C","second compound 0.1 µM, first compound 0.316 µM",42.9%
same,"viability, T/C","second compound 0.1 µM, first compound 1 µM",16%
same,"viability, T/C",[5],81.2%
same,"viability, T/C",[6],80.3%
same,"viability, T/C",[7],75.9%
same,"viability, T/C",[8],55.4%
same,"viability, T/C","second compound 0.316 µM, first compound 0.316 µM",36%
same,"viability, T/C","second compound 0.316 µM, first compound 1 µM",13.5%
same,"viability, T/C",[9],83.5%
same,"viability, T/C",[10],81.9%
same,"viability, T/C",[11],85.4%
same,"viability, T/C",[12],58.3%
same,"viability, T/C","second compound 1 µM, first compound 0.316 µM",40.4%
same,"viability, T/C","second compound 1 µM, first compound 1 µM",13.7%
same,"viability, T/C",[13],97.3%
same,"viability, T/C",[14],80.4%
same,"viability, T/C",[15],84.8%
same,"viability, T/C",[16],62.1%
same,"viability, T/C","second compound 3.16 µM, first compound 0.316 µM",36.3%
same,"viability, T/C","second compound 3.16 µM, first compound 1 µM",15.1%
same,"viability, T/C",[17],81.3%
same,"viability, T/C",[18],80.5%
same,"viability, T/C",[19],79.7%
same,"viability, T/C",[20],59.2%
same,"viability, T/C","second compound 10 µM, first compound 0.316 µM",40.7%
same,"viability, T/C","second compound 10 µM, first compound 1 µM",14.1%
Cn1ncnc1C1c2n[nH]c(=O)c3cc(F)cc(c23)NC1c1ccc(F)cc1 (stereo not given) + NC1CCC(NC2CC2c2ccccc2)CC1,IC50,second compound 0.1 µM,> 100 nM
same,IC50,second compound 0.316 µM,> 100 nM
same,IC50,second compound 1 µM,> 100 nM
same,IC50,second compound 3.16 µM,> 100 nM
same,IC50,second compound 10 µM,> 100 nM
same,"viability, T/C","second compound 0.1 µM, first compound 0.000316 µM",93%
same,"viability, T/C","second compound 0.1 µM, first compound 0.001 µM",104%
same,"viability, T/C",[1],88.4%
same,"viability, T/C",[2],94.9%
same,"viability, T/C",[3],88.6%
same,"viability, T/C",[4],90.4%
same,"viability, T/C","second compound 0.316 µM, first compound 0.000316 µM",86.9%
same,"viability, T/C","second compound 0.316 µM, first compound 0.001 µM",98.3%
same,"viability, T/C",[5],103%
same,"viability, T/C",[6],91.8%
same,"viability, T/C",[7],82.8%
same,"viability, T/C",[8],86.8%
same,"viability, T/C","second compound 1 µM, first compound 0.000316 µM",91.7%
same,"viability, T/C","second compound 1 µM, first compound 0.001 µM",90.9%
same,"viability, T/C",[9],83.5%
same,"viability, T/C",[10],84.3%
same,"viability, T/C",[11],85%
same,"viability, T/C",[12],83%
same,"viability, T/C","second compound 3.16 µM, first compound 0.000316 µM",83.4%
same,"viability, T/C","second compound 3.16 µM, first compound 0.001 µM",87.7%
same,"viability, T/C",[13],79.9%
same,"viability, T/C",[14],98.1%
same,"viability, T/C",[15],76.5%
same,"viability, T/C",[16],93.2%
same,"viability, T/C","second compound 10 µM, first compound 0.000316 µM",98.6%
same,"viability, T/C","second compound 10 µM, first compound 0.001 µM",86.7%
same,"viability, T/C",[17],83.5%
same,"viability, T/C",[18],88.1%
same,"viability, T/C",[19],85.3%
same,"viability, T/C",[20],81.7%
NS(=O)(=O)OCC1CC(n2ccc3c(NC4CCc5ccccc54)ncnc32)CC1O (stereo not given) + NC1CCC(NC2CC2c2ccccc2)CC1,IC50,second compound 0.1 µM,> 3000 nM
same,IC50,second compound 0.316 µM,> 3000 nM
same,IC50,second compound 1 µM,> 3000 nM
same,IC50,second compound 3.16 µM,> 3000 nM
same,IC50,second compound 10 µM,> 3000 nM
same,"viability, T/C",[21],149%
same,"viability, T/C",[22],125%
same,"viability, T/C",[23],77.5%
same,"viability, T/C",[24],84.7%
same,"viability, T/C",[25],79.6%
same,"viability, T/C",[26],74.8%
same,"viability, T/C",[27],162%
same,"viability, T/C",[28],131%
same,"viability, T/C",[29],87.7%
same,"viability, T/C",[30],73.6%
same,"viability, T/C",[31],77.5%
same,"viability, T/C",[32],77.8%
same,"viability, T/C",[33],164%
same,"viability, T/C",[34],115%
same,"viability, T/C",[35],82.4%
same,"viability, T/C",[36],66.5%
same,"viability, T/C",[37],80.7%
same,"viability, T/C",[38],75.5%
same,"viability, T/C",[39],132%
same,"viability, T/C",[40],113%
same,"viability, T/C",[41],93.8%
same,"viability, T/C",[42],75.2%
same,"viability, T/C",[43],69.8%
same,"viability, T/C",[44],70.1%
same,"viability, T/C",[45],163%
same,"viability, T/C",[46],124%
same,"viability, T/C",[47],86.5%
same,"viability, T/C",[48],73.9%
same,"viability, T/C",[49],73.9%
same,"viability, T/C",[50],70.2%
O=C(C=Cc1cccc(S(=O)(=O)Nc2ccccc2)c1)NO + NC1CCC(NC2CC2c2ccccc2)CC1,IC50,second compound 0.1 µM,167 nM
same,IC50,second compound 0.316 µM,122 nM
same,IC50,second compound 1 µM,88.5 nM
same,IC50,second compound 3.16 µM,606 nM
same,IC50,second compound 10 µM,84.7 nM
same,"viability, T/C",[21],72.1%
same,"viability, T/C",[22],72.1%
same,"viability, T/C",[23],57.9%
same,"viability, T/C",[24],22.7%
same,"viability, T/C",[25],6.87%
same,"viability, T/C",[26],96%
same,"viability, T/C",[27],88.8%
same,"viability, T/C",[28],69.8%
same,"viability, T/C",[29],61.9%
same,"viability, T/C",[30],18.5%
same,"viability, T/C",[31],7.13%
same,"viability, T/C",[32],97.9%
same,"viability, T/C",[33],78.8%
same,"viability, T/C",[34],68.8%
same,"viability, T/C",[35],52.4%
same,"viability, T/C",[36],19.1%
same,"viability, T/C",[37],8.74%
same,"viability, T/C",[38],102%
same,"viability, T/C",[39],88.6%
same,"viability, T/C",[40],72.9%
same,"viability, T/C",[41],56.1%
same,"viability, T/C",[42],26.4%
same,"viability, T/C",[43],6.99%
same,"viability, T/C",[44],108%
same,"viability, T/C",[45],85.3%
same,"viability, T/C",[46],75.7%
same,"viability, T/C",[47],48.8%
same,"viability, T/C",[48],22.1%
same,"viability, T/C",[49],7.93%
same,"viability, T/C",[50],98.2%

# From PubChem BioAssay AID1918941 (Molecular Pharmacology Branch, DTP, NCI, 2023)
